Laboratory results published in patent US12622880B2, “Therapeutic system for the topical, transdermal and transcutaneous application of carbon monoxide” (Julius-Maximilians-Universitaet Wuerzburg, priority 2020, dated 2026).

Assay: CO release through pig ear skin
Type: in vitro ADME
Experimental: Pig ear skin was purchased from a butcher and prepared immediately after delivery. Skin was carefully removed from the remaining fat and cartilage. Subsequent to the preparation, the skin was clamped between the top and bottom compartment of the test cell. Sealing was ensured by screw clamps and a sealing ring (FIG. 5A).
For the experiment 15 mg of tri-sodium Beck-1 ((Mo(CO)3(CNCH2CO2Na)3) were placed in the bottom compartment of the test cell and dissolved in 4 mL H2O. CO release was activated by adding 1 mL of iron(III)chloride solution (350 mg/mL) to the tri-sodium Beck-1. CO release through the pig skin was measured over a time period of 1000 minutes.
The data shown in FIG. 6 illustrates that CO release trough the pig skin is a slow process and reaches plateau in the raw data at around 500 minutes and stays at that plateau of 200 ppm CO for another 500 minutes until the end of the experiment. A plateau in the raw data means that the sensor consumption of CO is at the same rate as the release through the skin. To correct for the sensor consumption, CO release data of tri-sodium Beck-1 without any limiting membranes were used to calculate the consumption rate of the sensor.

[C-]#[O+] [CO, carbon monoxide]
CO release through the pig skin, maximum in the corrected data (15 mg tri-sodium Beck-1 activated with iron(III)chloride, at 1000 minutes, corrected for sensor consumption of CO): 340 ppm
CO release through the pig skin, plateau in the raw data (15 mg tri-sodium Beck-1 in 4 mL H2O activated with 1 mL iron(III)chloride solution (350 mg/mL), averaged raw data (n=2), plateau held until 1000 minutes): 200 ppm
time at which CO release through the pig skin reaches plateau in the raw data (15 mg tri-sodium Beck-1 in 4 mL H2O activated with 1 mL iron(III)chloride solution (350 mg/mL), raw data): around 500 minutes
